Measured values: patent EP0368756A1, “Dibenzocycloheptene derivatives, process for their preparation and their use as medicaments” (ROUSSEL-UCLAF, priority 1988, dated 1990)

Key:
[1] = system: convulsions toniques entrainées par le pentétrazol; experiment: Anticonvulsant activity against pentetrazol-induced tonic convulsions; assay type: in vivo, souris; conditions: sc; mouse; pentetrazol 160 mg/kg s.c. given 1 hour after the product; tonic convulsions noted for 30 minutes; read-out: DA₅₀ ou dose qui diminue de 50 % le nombre de convulsions toniques entrainées par le pentétrazol
Method: Activité anticonvulsivante chez la souris.
L'essai est réalisé sur des lots de 10 souris. L'agent convulsivant est le pentétrazol, en solution aqueuse à la dose de 160 mg/kg s.c. sous un volume de 0,5 ml/20 g, administré 1 heure après le produit de l'exemple 7. Les animaux sont isolés et les convulsions toniques sont notées pendant 30 minutes.
La DA₅₀ ou dose qui diminue de 50 % le nombre de convulsions toniques entrainées par le pentétrazol est de 2,3 mg/kg.

[2] = system: couche CA₁ de l'hippocampe; experiment: Neuronal protective effect in the hippocampus after stereotaxic quinolinic acid injection; assay type: in vivo; conditions: anaesthetised rat; 20 mg/kg intraperitoneal 30 min before quinolinic acid (5 micrograms) into right hippocampus; cresyl violet histology one week later
Method: Recherche de l'effet protecteur neuronal dans l'hippocampe.
L'essai a été réalisé chez le rat anesthésié. Une injection stéréotaxique d'acide quinolinique (5 microgrammes) est réalisée dans l'hippocampe droit. Le produit à étudier (ou le véhicule seul pour le lot d'animaux témoins) est administré par voie intrapéritonéale 30 minutes auparavant.
Une semaine plus tard, les cerveaux sont prélevés et coupés en tranches fines. Les tranches sont colorées au crésyl violet et photographiées.
Chez les animaux témoins, l'acide quinolinique détruit la couche CA₁ de l'hippocampe droit tandis que l'hippocampe gauche (contrôle) non injecté, est intacte. L'hippocampe gauche des animaux n'a reçu aucun traitement. Chez les animaux ayant reçu une administration de 20 mg/kg du produit de l'exemple 7, par voie intrapéritonéale, la couche CA₁ de l'hippocampe droit est protégée donc identique à celle de l'hippocampe gauche qui n'a pas reçu d'injection d'acide quinolinique.

Nc1ccc2c(c1)C1Cc3ccccc3C2N1 (centres unmarked) [exemple 7, 8-amino 10,11-dihydro 5,10-imino 5H-dibenzo[a,d]-cycloheptène]
ED50 [1]: 2.3 mg/kg
effet protecteur neuronal dans l'hippocampe [2]: protégée
